Results published in patent publication US8076487B2, “Pyridone derivative and herbicide” (Kumiai Chemical Industry Co., Ltd., priority 2006, dated 2011).

Columns and labels:
Type in all cases: in vivo
[1] = system: barnyardgrass (Echinochloa crus-galli (L.) P. Beauv. var. crus-galli); assay: Test Example 2: herbicidal effect by soil application to upland field; details: soil surface spray, upland field soil, 1,000 g active ingredient per hectare, 21st day after application
Procedure: (§1) [table] Test Example 2 Test on Herbicidal Effect by Soil Application to Upland field In a 80 cm2 plastic pot, field soil was filled. Seeds of barnyardgrass (Echinochloa crus-galli (L.) P. Beauv. var. crus-galli), green foxtail (Setaria viridis (L.) P. Beauv.), velvetleaf (Abutilon theophrasti medicus), and slender amaranth (Amaranthus viridis L.) were sown and covered with soils. The wettable powder prepared according to Formulation Example 1 was diluted in water and a 1,000 liter equivalent amount per 1 hectare so that the active ingredient becomes 1,000 g per 1 hectare was uniformly sprayed on a soil surface using a small sprayer. Then, on the 21st day after the application to the plants grew in a greenhouse, the herbicidal effect was examined in accordance with a standard shown in Table 34.

[2] = system: slender amaranth (Amaranthus viridis L.); assay: as above; details: soil surface spray, upland field soil, 1,000 g active ingredient per hectare, 21st day after application
Procedure: as §1

[3] = system: green foxtail (Setaria viridis (L.) P. Beauv.); assay: as above; details: soil surface spray, upland field soil, 1,000 g active ingredient per hectare, 21st day after application
Procedure: as §1

[4] = system: velvetleaf (Abutilon theophrasti medicus); assay: as above; details: soil surface spray, upland field soil, 1,000 g active ingredient per hectare, 21st day after application
Procedure: as §1

[5] = system: heartshape false pickerelweed (Monochoria vaginalis (Burm.f.) C.Presl); assay: Test Example 1: herbicidal effect by soil application to paddy field; details: paddy field soil application; active ingredient 1,000 g per 1 hectare; wettable powder added dropwise to water surface the day after sowing; examined on the 21st day after application
How it was run: (§2)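 Plants were sown in flooded (3 cm) paddy soil and evaluated for herbicidal effect 21 days after soil application in a greenhouse.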

[6] = system: early watergrass (Echinochloa oryzicola Vasing); assay: as above; details: paddy field soil application; active ingredient 1,000 g per 1 hectare; wettable powder added dropwise to water surface the day after sowing; examined on the 21st day after application
How it was run: as §2

[7] = system: Japanese bulrush (Scirpus juncoides Roxb.); assay: as above; details: paddy field soil application; active ingredient 1,000 g per 1 hectare; wettable powder added dropwise to water surface the day after sowing; examined on the 21st day after application
How it was run: as §2

Row | Compound | herbicidal effect (index), Barnyardgrass [1] | herbicidal effect (index), Slender Amaranth [2] | herbicidal effect (index), Green Foxtail [3] | herbicidal effect (index), Velvetleaf [4] | herbicidal effect, Monochoria vaginalis (Burm. f.) C. Presl [5] | herbicidal effect, Echinochloa oryzicola Vasing [6] | herbicidal effect, Scirpus juncoides Roxb. [7]
1 | Cn1c(C(F)(F)F)ccc(C(=O)C2=C(O)C3C=CC(C3)C2=O)c1=O (stereo not drawn) [III-42] | 4 (70 to less than 90% of herbicidal effect and crop phytotoxicity) | 5 (90% or more of herbicidal effect and crop phytotoxicity) | 3 (50 to less than 70% of herbicidal effect and crop phytotoxicity) | 5 (90% or more of herbicidal effect and crop phytotoxicity) | 5 (90% or more of herbicidal effect and crop phytotoxicity) | 5 (90% or more of herbicidal effect and crop phytotoxicity) | 5 (90% or more of herbicidal effect and crop phytotoxicity)
2 | CCCS(=O)(=O)Oc1c(C(=O)c2ccc(C(F)(F)F)n(CCS(C)(=O)=O)c2=O)cnn1C [IV-55] | 5 (90% or more of herbicidal effect and crop phytotoxicity) | 5 (90% or more of herbicidal effect and crop phytotoxicity) | 5 (90% or more of herbicidal effect and crop phytotoxicity) | 4 (70 to less than 90% of herbicidal effect and crop phytotoxicity) | 5 (90% or more of herbicidal effect and crop phytotoxicity) | 4 (70 to less than 90% of herbicidal effect and crop phytotoxicity) | 4 (70 to less than 90% of herbicidal effect and crop phytotoxicity)
3 | CCCn1c(C(F)(F)F)c(C)cc(C(=O)c2cnn(C)c2O)c1=O [IV-241] | 4 (70 to less than 90% of herbicidal effect and crop phytotoxicity) | 5 (90% or more of herbicidal effect and crop phytotoxicity) | 3 (50 to less than 70% of herbicidal effect and crop phytotoxicity) | 5 (90% or more of herbicidal effect and crop phytotoxicity) | 5 (90% or more of herbicidal effect and crop phytotoxicity) | 5 (90% or more of herbicidal effect and crop phytotoxicity) | 5 (90% or more of herbicidal effect and crop phytotoxicity)
4 | CCCS(=O)(=O)Oc1c(C(=O)c2ccc(C(F)(F)F)n(-c3ccccc3)c2=O)c(C)nn1C [IV-237] | 4 (70 to less than 90% of herbicidal effect and crop phytotoxicity) | 5 (90% or more of herbicidal effect and crop phytotoxicity) | 4 (70 to less than 90% of herbicidal effect and crop phytotoxicity) | 4 (70 to less than 90% of herbicidal effect and crop phytotoxicity) | 5 (90% or more of herbicidal effect and crop phytotoxicity) | 5 (90% or more of herbicidal effect and crop phytotoxicity) | 5 (90% or more of herbicidal effect and crop phytotoxicity)
5 | O=C(C1=C(O)C2CCC(C2)C1=O)c1ccc(C(F)(F)F)n(-c2c(F)cccc2F)c1=O (stereo not drawn) [III-37] | 4 (70 to less than 90% of herbicidal effect and crop phytotoxicity) | 4 (70 to less than 90% of herbicidal effect and crop phytotoxicity) | 4 (70 to less than 90% of herbicidal effect and crop phytotoxicity) | 5 (90% or more of herbicidal effect and crop phytotoxicity) | 5 (90% or more of herbicidal effect and crop phytotoxicity) | 5 (90% or more of herbicidal effect and crop phytotoxicity) | 4 (70 to less than 90% of herbicidal effect and crop phytotoxicity)
6 | CCCS(=O)(=O)Oc1c(C(=O)c2ccc(C(F)(F)F)n(CC3CCCO3)c2=O)cnn1CC (stereo not drawn) [IV-207] | 5 (90% or more of herbicidal effect and crop phytotoxicity) | 5 (90% or more of herbicidal effect and crop phytotoxicity) | 5 (90% or more of herbicidal effect and crop phytotoxicity) | 5 (90% or more of herbicidal effect and crop phytotoxicity) | 5 (90% or more of herbicidal effect and crop phytotoxicity) | 5 (90% or more of herbicidal effect and crop phytotoxicity) | 5 (90% or more of herbicidal effect and crop phytotoxicity)
7 | CC(C)(C)c1ccc(-n2c(C(F)(F)F)ccc(C(=O)C3=C(O)CCCC3=O)c2=O)cc1 [I-96] | 5 (90% or more of herbicidal effect and crop phytotoxicity) | 3 (50 to less than 70% of herbicidal effect and crop phytotoxicity) | 5 (90% or more of herbicidal effect and crop phytotoxicity) | 5 (90% or more of herbicidal effect and crop phytotoxicity) | 5 (90% or more of herbicidal effect and crop phytotoxicity) | 5 (90% or more of herbicidal effect and crop phytotoxicity) | 5 (90% or more of herbicidal effect and crop phytotoxicity)
8 | CCCS(=O)(=O)Oc1c(C(=O)c2ccc(C(F)(F)F)n(-c3ccc(F)c(F)c3)c2=O)c(C)nn1C [IV-88] | 5 (90% or more of herbicidal effect and crop phytotoxicity) | 5 (90% or more of herbicidal effect and crop phytotoxicity) | 5 (90% or more of herbicidal effect and crop phytotoxicity) | 5 (90% or more of herbicidal effect and crop phytotoxicity) | 5 (90% or more of herbicidal effect and crop phytotoxicity) | 5 (90% or more of herbicidal effect and crop phytotoxicity) | 4 (70 to less than 90% of herbicidal effect and crop phytotoxicity)
9 | CCn1c(C(F)(F)Cl)ccc(C(=O)C2=C(O)CCCC2=O)c1=O [I-226] | 4 (70 to less than 90% of herbicidal effect and crop phytotoxicity) | 5 (90% or more of herbicidal effect and crop phytotoxicity) | 3 (50 to less than 70% of herbicidal effect and crop phytotoxicity) | 5 (90% or more of herbicidal effect and crop phytotoxicity) | 5 (90% or more of herbicidal effect and crop phytotoxicity) | 5 (90% or more of herbicidal effect and crop phytotoxicity) | 5 (90% or more of herbicidal effect and crop phytotoxicity)
10 | COC1=C(C(=O)c2ccc(C(F)(F)F)n(C)c2=O)C(=O)CCC1 [II-22] | 4 (70 to less than 90% of herbicidal effect and crop phytotoxicity) | 5 (90% or more of herbicidal effect and crop phytotoxicity) | 4 (70 to less than 90% of herbicidal effect and crop phytotoxicity) | 5 (90% or more of herbicidal effect and crop phytotoxicity) | 5 (90% or more of herbicidal effect and crop phytotoxicity) | 5 (90% or more of herbicidal effect and crop phytotoxicity) | 5 (90% or more of herbicidal effect and crop phytotoxicity)
11 | CCCCCNn1c(C(F)(F)F)ccc(C(=O)C2=C(O)CCCC2=O)c1=O [I-165] | 5 (90% or more of herbicidal effect and crop phytotoxicity) | 5 (90% or more of herbicidal effect and crop phytotoxicity) | 3 (50 to less than 70% of herbicidal effect and crop phytotoxicity) | 5 (90% or more of herbicidal effect and crop phytotoxicity) | 5 (90% or more of herbicidal effect and crop phytotoxicity) | 5 (90% or more of herbicidal effect and crop phytotoxicity) | 5 (90% or more of herbicidal effect and crop phytotoxicity)
12 | Cn1ncc(C(=O)c2ccc(C(F)(F)F)n(CC3CCCO3)c2=O)c1OC(=O)c1c(Cl)cc(Cl)cc1Cl (stereo not drawn) [IV-133] | 5 (90% or more of herbicidal effect and crop phytotoxicity) | 5 (90% or more of herbicidal effect and crop phytotoxicity) | 3 (50 to less than 70% of herbicidal effect and crop phytotoxicity) | 4 (70 to less than 90% of herbicidal effect and crop phytotoxicity) | 5 (90% or more of herbicidal effect and crop phytotoxicity) | 5 (90% or more of herbicidal effect and crop phytotoxicity) | 5 (90% or more of herbicidal effect and crop phytotoxicity)
